For this experiment, the system named is cultured human mast cells (CHMC). Description: CHMC low cell density IgE activation: tryptase assay. It counts as cell-based. The note with it: low cell density, IgE activation. The procedure, abridged:
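Fluorogenic readout of tryptase released into the supernatant (30 min substrate incubation, room temperature) measures degranulation. Cells were plated at low density (1000–1500/well, varied by donor) and triggered with anti-IgE for 30 min at 37 °C.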

Setting [1] is: 3 pt, read-out: LD Tryptase, CHMC, IgE, 3 pt.
[2] abbreviates: 8 pt, read-out: LD Tryptase, CHMC, IgE, 8 pt.
Setting [3] is: Homo sapiens, Mast cell, 3 pt, read-out: LD Tryptase, CHMC, IgE, 3 pt.
Where [4] appears, read: Homo sapiens, Mast cell, 8 pt, read-out: LD Tryptase, CHMC, IgE, 8 pt.

Read-outs that look alike come from different tables or passages of the source.

For `CNC(=O)COc1cccc(Nc2ncc(F)c(Nc3ccc(OC)c(Cl)n3)n2)c1` [Compound 880, N4-(2-Chloro-3-methoxypyrid-6-yl)-5-fluoro-N2-[3-(N-methylamino)carbonylmethyleneoxyphenyl]-2,4-pyrimidinediamine], the IC50 reads like this: under setting [1], less than 10 µM; under setting [2], less than 10 µM.
In the case of `COc1ccc(Nc2nc(Nc3ccc4cn[nH]c4c3)ncc2F)nc1Cl` [Compound 882], under setting [3], the IC50 was less than 10 µM.
Consider `COc1ccc(Nc2nc(Nc3ccc4[nH]c(C(F)(F)F)nc4c3)ncc2F)nc1Cl` [Compound 883], for which the IC50 under setting [3] is less than 10 µM.
On the same count and under the same terms, under `COc1ccc(Nc2nc(Nc3ccc4nc(C)[nH]c4c3)ncc2F)nc1Cl` [Compound 884] stands less than 10 µM.
Consider `COc1ccc(Nc2nc(Nc3ccc4cnn(C)c4c3)ncc2F)nc1Cl` [Compound 885], for which the IC50 under setting [3] is less than 10 µM.
As for `COc1ccc(Nc2nc(Nc3ccc4c(cnn4C)c3)ncc2F)nc1Cl` [Compound 886], under setting [3], the IC50 is more than 10 µM.
Consider `CCn1ncc2ccc(Nc3ncc(F)c(Nc4ccc(OC)c(Cl)n4)n3)cc21` [Compound 887], for which the IC50 under setting [3] is less than 10 µM.
In the case of `COc1ccc(Nc2nc(Nc3ccc4cnn(C(C)C)c4c3)ncc2F)nc1Cl` [Compound 888], the IC50 under setting [3] was less than 10 µM.
For the compound `COc1ccc(Nc2nc(Nc3ccc4c(c3)NC(=O)C(C)(C)O4)ncc2F)nc1Cl` [Compound 889], the IC50 under setting [3] is less than 10 µM.
As for `COc1ccc(Nc2nc(Nc3ccc4c(cnn4CCCNC(C)=O)c3)ncc2F)nc1Cl` [Compound 890], the IC50 under setting [3] is less than 10 µM.
Regarding `COc1ccc(Nc2nc(Nc3ccc4c(cnn4CCCNC(=O)C4CC4)c3)ncc2F)nc1Cl` [Compound 891], the IC50 under setting [3] was less than 10 µM.
Take `COc1ccc(Nc2nc(Nc3ccc4c(cnn4CCCNC(=O)C(C)(C)C)c3)ncc2F)nc1Cl` [Compound 892]: under setting [3], the IC50 is less than 10 µM.
Turning to `COc1ccc(Nc2nc(Nc3ccc4c(cnn4CCCNC(=O)C(C)C)c3)ncc2F)nc1Cl` [Compound 893], under setting [3], the IC50 is less than 10 µM.
For `Cc1nc2cc(Nc3ncc(F)c(Nc4ccc(Cl)c(Cl)c4)n3)ccc2n1C` [Compound 894], under setting [3], the IC50 is less than 10 µM.
The same measure, in the same setting: next, `COc1ccc(Nc2nc(Nc3ccc4c(c3)nc(C)n4C)ncc2F)cc1Cl` [Compound 895]: less than 10 µM.
Consider `Cc1nc2cc(Nc3ncc(F)c(Nc4ccc5c(c4)NC(=O)C(C)(C)O5)n3)ccc2n1C` [Compound 896], for which the IC50 under setting [3] is less than 10 µM and the IC50 under setting [4] is less than 10 µM.
As to `Cc1nc2cc(Nc3ncc(F)c(Nc4ccc5c(c4)NC(=O)[C@H](C)O5)n3)ccc2n1C` [Compound 897], the IC50 is less than 10 µM under setting [3] and less than 10 µM under setting [4].
With `Cc1nc2cc(Nc3ncc(F)c(Nc4ccc5c(n4)NC(=O)C(C)(C)O5)n3)ccc2n1C` [Compound 898, N2-(1,2-Dimethylbenzimidazol-5-yl)-N4-(2,2-dimethyl-3-oxo-4H-5-pyrid[1,4]oxazin-6-yl)-5-Fluoro-2,4-pyrimidinediamine], the IC50 is less than 10 µM under setting [3] and less than 10 µM under setting [4].
Regarding `Cc1nc2cc(Nc3ncc(F)c(Nc4ccc(Cl)c(Cl)c4)n3)ccc2n1CCO` [Compound 899], the IC50 reads like this: under setting [3], less than 10 µM; under setting [4], less than 10 µM.
As to `COc1ccc(Nc2nc(Nc3ccc4c(c3)nc(C)n4CCO)ncc2F)cc1Cl` [Compound 900], the IC50 under setting [3] was less than 10 µM.
Turning to `Cc1nc2cc(Nc3ncc(F)c(Nc4ccc5c(c4)NC(=O)C(C)(C)O5)n3)ccc2n1CCO` [Compound 901], the IC50 reads like this: under setting [3], less than 10 µM; under setting [4], less than 10 µM.
With `Cc1nc2cc(Nc3ncc(F)c(Nc4ccc5c(c4)NC(=O)[C@H](C)O5)n3)ccc2n1CCO` [Compound 902], the IC50 under setting [4] is less than 10 µM.
On the same count and under the same terms, next, `Cc1nc2cc(Nc3ncc(F)c(Nc4ccc5c(n4)NC(=O)C(C)(C)O5)n3)ccc2n1CCO` [Compound 903, N4-(2,2-Dimethyl-3-oxo-4H-5-pyrid[1,4]oxazin-6-yl)-5-fluoro-N2-[1-(2-hydroxyethyl)-2-methylbenzimidazol-5-yl)-2,4-pyrimidinediamine]: less than 10 µM.
Regarding `Cn1c(=O)[nH]c2cc(Nc3ncc(F)c(Nc4ccc(Cl)c(Cl)c4)n3)ccc21` [Compound 904], the IC50 is, setting by setting: under setting [3], more than 10 µM; under setting [4], more than 10 µM.
Take `COc1ccc(Nc2nc(Nc3ccc4c(c3)[nH]c(=O)n4C)ncc2F)cc1Cl` [Compound 905]: the IC50 is, setting by setting: under setting [3], less than 10 µM; under setting [4], less than 10 µM.
As to `Cn1c(=O)[nH]c2cc(Nc3ncc(F)c(Nc4ccc5c(c4)NC(=O)C(C)(C)O5)n3)ccc21` [Compound 906], the IC50 was less than 10 µM under setting [3] and less than 10 µM under setting [4].
Regarding `C[C@@H]1Oc2ccc(Nc3nc(Nc4ccc5c(c4)[nH]c(=O)n5C)ncc3F)cc2NC1=O` [Compound 907], the IC50 reads like this: under setting [3], less than 10 µM; under setting [4], less than 10 µM.
For `Cn1c(=O)[nH]c2cc(Nc3ncc(F)c(Nc4ccc5c(n4)NC(=O)C(C)(C)O5)n3)ccc21` [Compound 908, N4-(2,2-Dimethyl-3-oxo-4H-5-pyrid[1,4]oxazin-6-yl)-N2-(2,3-dihydro-1-methyl-2-oxo-benzimidazol-5-yl)-5-fluoro-2,4-pyrimidinediamine], the IC50 runs as follows: under setting [1], less than 10 µM; under setting [2], less than 10 µM.
With `Cc1nc2ccc(Nc3ncc(F)c(Nc4ccc5c(c4)NC(=O)C(C)S5(=O)=O)n3)cc2[nH]1` (centres unmarked) [Compound 909], under setting [3], the IC50 was less than 10 µM.
On to `CC1C(=O)Nc2cc(Nc3nc(Nc4ccc5[nH]c(C(F)(F)F)nc5c4)ncc3F)ccc2S1(=O)=O` (centres unmarked) [Compound 910, 5-Fluoro-N4-(2-methyl-1,1,3-trioxo-2H,4H-benzo[1,4]thiazin-6-yl)-N2-(2-trifluoromethyl-1H-benzimidazol-5-yl)-2,4-pyrimidinediamine], for which, under setting [3], the IC50 is less than 10 µM.
`Cn1c(C(F)(F)F)nc2cc(Nc3ncc(F)c(Nc4ccc(Cl)c(Cl)c4)n3)ccc21` [Compound 911]: the IC50 under setting [4] was less than 10 µM.
With `COc1ccc(Nc2nc(Nc3ccc4c(c3)nc(C(F)(F)F)n4C)ncc2F)cc1Cl` [Compound 912], the IC50 under setting [4] was less than 10 µM.
On to `Cn1c(C(F)(F)F)nc2cc(Nc3ncc(F)c(Nc4ccc5c(c4)NC(=O)C(C)(C)O5)n3)ccc21` [Compound 913], for which the IC50 under setting [2] was less than 10 µM.
In the case of `C[C@@H]1Oc2ccc(Nc3nc(Nc4ccc5c(c4)nc(C(F)(F)F)n5C)ncc3F)cc2NC1=O` [Compound 914], the IC50 under setting [4] was less than 10 µM.
Regarding `OCCn1c(C(F)(F)F)nc2cc(Nc3ncc(F)c(Nc4ccc(Cl)c(Cl)c4)n3)ccc21` [Compound 916], under setting [2], the IC50 was less than 10 µM.
Consider `COc1ccc(Nc2nc(N)nc(-c3ccc4c(c3)nc(C(F)(F)F)n4CCO)c2F)cc1Cl` [Compound 917], for which the IC50 under setting [4] was less than 10 µM.
In the case of `CC1(C)Oc2ccc(Nc3nc(N)nc(-c4ccc5c(c4)nc(C(F)(F)F)n5CCO)c3F)cc2NC1=O` [Compound 918], the IC50 was less than 10 µM under setting [3] and less than 10 µM under setting [4].
For `C[C@@H]1Oc2ccc(Nc3nc(N)nc(-c4ccc5c(c4)nc(C(F)(F)F)n5CCO)c3F)cc2NC1=O` [Compound 919], the IC50 was less than 10 µM under setting [3] and less than 10 µM under setting [4].
Regarding `COc1ccc(Nc2nc(Nc3ccc4oncc4c3)ncc2F)cc1Cl` [Compound 925], under setting [3], the IC50 is less than 10 µM.
Take `CC1(C)Oc2ccc(Nc3nc(Nc4ccc5oncc5c4)ncc3F)cc2NC1=O` [Compound 926]: the IC50 under setting [4] is less than 10 µM.
Same read-out and setting: next, `C[C@@H]1Oc2ccc(Nc3nc(Nc4ccc5oncc5c4)ncc3F)cc2NC1=O` [Compound 927]: less than 10 µM.
For `CC1(C)Oc2ccc(Nc3nc(Nc4ccc5oncc5c4)ncc3F)nc2NC1=O` [Compound 928, N2-(1,2-Benzisoxazol-5-yl)-N4-(2,2-dimethyl-3-oxo-4H-5-pyrido[1,4]oxazin-6-yl)-5-fluoro-2,4-pyrimidinediamine], the IC50 under setting [2] was less than 10 µM.
Take `CC1(C)C(=O)Nc2cc(Nc3nc(Nc4ccc5oncc5c4)ncc3F)ccc2S1(=O)=O` [Compound 930]: the IC50 under setting [3] is less than 10 µM.
`CCn1c(C)nc2cc(Nc3ncc(F)c(Nc4ccc(Cl)c(Cl)c4)n3)ccc21` [Compound 932]: the IC50 under setting [3] is more than 10 µM.
Turning to `CCn1c(C)nc2cc(Nc3ncc(F)c(Nc4ccc(OC)c(Cl)c4)n3)ccc21` [Compound 933], the IC50 under setting [3] was less than 10 µM.
Same read-out and setting: next, `CCn1c(C)nc2cc(Nc3ncc(F)c(Nc4ccc5c(c4)NC(=O)C(C)(C)O5)n3)ccc21` [Compound 934]: less than 10 µM.
For the compound `CCn1c(C)nc2cc(Nc3ncc(F)c(Nc4ccc5c(c4)NC(=O)[C@H](C)O5)n3)ccc21` [Compound 935], the IC50 is, setting by setting: under setting [3], less than 10 µM; under setting [4], less than 10 µM.
With `CCn1c(C)nc2cc(Nc3ncc(F)c(Nc4ccc5c(n4)NC(=O)C(C)(C)O5)n3)ccc21` [Compound 936, N4-(2,2-Dimethyl-3-oxo-4H-5-pyrido[1,4]oxazin-6-yl)-N2-(1-ethyl-2-methylbenzimidazol-5-yl)-5-fluoro-2,4-pyrimidinediamine], the IC50 under setting [1] was less than 10 µM.
As to `OCCCn1c(C(F)(F)F)nc2cc(Nc3ncc(F)c(Nc4ccc(Cl)c(Cl)c4)n3)ccc21` [Compound 937], the IC50 is, setting by setting: under setting [3], less than 10 µM; under setting [4], less than 10 µM.
Consider `COc1ccc(Nc2nc(Nc3ccc4c(c3)nc(C(F)(F)F)n4CCCO)ncc2F)cc1Cl` [Compound 938], for which, under setting [3], the IC50 is less than 10 µM.
Turning to `CC1(C)Oc2ccc(Nc3nc(Nc4ccc5c(c4)nc(C(F)(F)F)n5CCCO)ncc3F)cc2NC1=O` [Compound 939], the IC50 under setting [3] is less than 10 µM and the IC50 under setting [4] is less than 10 µM.
In the case of `C[C@@H]1Oc2ccc(Nc3nc(Nc4ccc5c(c4)nc(C(F)(F)F)n5CCCO)ncc3F)cc2NC1=O` [Compound 940], the IC50 was less than 10 µM under setting [3] and less than 10 µM under setting [4].
On to `CC1(C)Oc2ccc(Nc3nc(Nc4ccc5c(c4)nc(C(F)(F)F)n5CCCO)ncc3F)nc2NC1=O` [Compound 941, N4-(2,2-Dimethyl-3-oxo-4H-5-pyrido[1,4]oxazin-6-yl)-5-fluoro-N2-[1-(3-hydroxypropyl)-2-trifluoromethylbenzimidazol-5-yl]-2,4-pyrimidinediamine], for which the IC50 is, setting by setting: under setting [1], less than 10 µM; under setting [2], less than 10 µM.

Values taken from US20220073536A1 (Rigel Pharmaceuticals, Inc., priority 2003, published 2022).
